# Target: T1, recombinant human DPP-1 (Cathepsin C) (Homo sapiens, UniProt P53634)
# T1 construct: made in house
# Test: DPP-1 Inhibition Assay (in vitro), fluorogenic substrate GR-AMC
# Type: biochemical
# Conditions: 0.15 nM DPP-1, 10 uM GR-AMC, pH 7.0, room temperature; average value where tested multiple times
# Description: Test compounds were assessed for DPP-1 (Cathepsin C) inhibitory activity using a fluorogenic substrate, GR-AMC (Glycine-Arginine-amino-4-methylcoumarin, Bachem, 1-1215). The amount of amino-methylcoumarin released is proportional to the DPP-1 activity, and the reaction is monitored kinetically with a Molecular Devices plate reader using black 96-well plates.
# All compounds were tested under room temperature conditions. The assay buffer consisted of 50 mM HEPES, pH 7.0, 100 mM NaCl, 2 mM glutathione (GSH), and 0.002% TWEEN 20. GSH and TWEEN 20 were added to the buffer fresh daily. Just prior to use, an in-house preparation of recombinant human DPP-1 (240 μM stock, MW 49.6 kD) was diluted 600-fold in assay buffer containing fresh 2 mM dithiothreitol (DTT) to activate the enzyme, then diluted into assay buffer (without DTT) 133-fold for a DPP-1 working solution of 3 nM. Test compounds were diluted in DMSO for 20× their final assay concentrations.
# Additions to a 96-well black Costar 3915 plates were as follows: 90 μL of 11 μM GR-AMC, 5 μL test compound (followed by mixing), and 5 μL 3 nM DPP1 to start the reaction. Fluorescent reactions were monitored kinetically at 360 nm excitation, 440 nm emission on a Molecular Devices Spectramax XPS reader. The Softmax Pro software of the reader determined the initial velocity of the selected data (the first 3-5 minutes of the reaction), and the best linear regression fit of the initial kinetic data. Final assay conditions were 0.15 nM DPP-1, 10 uM GR-AMC, 50 mM HEPES, pH 7.0, 100 mM NaCl, 2 mM GSH, 0.002% TWEEN 20, 1 uM DTT, 5.0% DMSO. Initial velocity rates were plotted vs. test compound concentration by use of a four-parameter logistics equation (nonlinear regression, sigmoidal dose-response (variable slope), with fixed Hill (1.0) using GraphPad Prism® software for determination of DPP-1 IC50. Within-run assay coefficient of variation (CV) was generally <10%; between-run CV <20%.
# Representative compounds of the present invention were tested according to the procedure as described above, with results as listed in Table 12, below.
# T1 sequence (P53634 25-463): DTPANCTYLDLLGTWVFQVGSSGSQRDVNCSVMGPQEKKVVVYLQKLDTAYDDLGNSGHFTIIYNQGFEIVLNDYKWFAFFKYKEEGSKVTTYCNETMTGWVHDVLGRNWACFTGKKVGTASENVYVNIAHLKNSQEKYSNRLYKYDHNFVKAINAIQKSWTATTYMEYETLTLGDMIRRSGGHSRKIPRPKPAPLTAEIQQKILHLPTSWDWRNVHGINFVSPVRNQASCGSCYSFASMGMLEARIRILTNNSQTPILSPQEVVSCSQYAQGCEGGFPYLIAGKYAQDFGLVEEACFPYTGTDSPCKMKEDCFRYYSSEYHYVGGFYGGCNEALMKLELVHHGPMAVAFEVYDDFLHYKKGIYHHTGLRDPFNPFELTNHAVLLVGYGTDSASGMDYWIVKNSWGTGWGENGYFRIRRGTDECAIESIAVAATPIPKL
row,SMILES,IC50 [nM]
1,N[C@@H](Cc1cccs1)C(=O)N1CCC(c2cc3cc(-c4cccnc4)ccc3[nH]2)CC1 [Compound 23],110
2,CC[C@H](N)C(=O)NCCCc1cc2cc(C(=O)Nc3cccc(OC)c3)ccc2[nH]1 [Compound 92],350
3,CC[C@H](N)C(=O)NCCCc1cc2cc(C(=O)Nc3cc(OC)cc(OC)c3)ccc2o1 [Compound 94],1500
4,N[C@@H](Cc1cccs1)C(=O)N1CCC(c2cc3cc(-c4ccc(C(=O)O)cc4)ccc3[nH]2)CC1 [Compound 27],590
5,CC[C@H](N)C(=O)NCCCc1cc2cc(Oc3ccccc3)ccc2[nH]1 [Compound 98],480
6,CC[C@H](N)C(=O)NCCCc1cc2cc(C(=O)Nc3ccc4[nH]cnc4c3)ccc2o1 [Compound 72],2400
7,CCN(CCCc1cc2cc(C(=O)Nc3ccc(OC)c(OC)c3)ccc2[nH]1)C(=O)[C@@H](N)Cc1cccs1 [Compound 118],370
8,"COc1ccc(NC(=O)c2ccc3[nH]c(CCCN(C)C(=O)[C@@H](N)Cc4cccs4)cc3c2)cc1OC [Compound 106, (S)-2-(3-(2-amino-N-methyl-3-(thiophen-2-yl)propanamido)propyl)-N-(3,4-dimethoxyphenyl)-1H-indole-5-carboxamide]",82
9,CC[C@H](N)C(=O)NCCCc1cc2cc(C(=O)Nc3cccc4c3ncn4C)ccc2o1 [Compound 59],1400
10,"N[C@@H](Cc1cccs1)C(=O)NCCc1nc2ccccc2[nH]1 [Compound 37, (S)—N-(2-(1H-benzo[d]imidazol-2-yl)ethyl)-2-amino-3-(thiophen-2-yl)propanamide]",4250
11,CC[C@H](N)C(=O)NCCCc1cc2ccccc2o1 [Compound 42],3300
12,N[C@@H](Cc1cccs1)C(=O)N1CCC(c2cc3cc(-c4ccncc4)ccc3[nH]2)CC1 [Compound 26],230
13,CC[C@H](N)C(=O)NCCCc1cc2cc(C(=O)Nc3ccccc3OC)ccc2[nH]1 [Compound 88],1000
14,COc1ccc(-c2ccc3[nH]c(C4CCN(C(=O)[C@@H](N)Cc5cccs5)CC4)cc3c2)cn1 [Compound 25],250
15,CC[C@H](N)C(=O)N1CCC(c2cc3cc(-c4ccc(OC)c(OC)c4)ccc3[nH]2)CC1 [Compound 9],3700
16,N[C@@H](Cc1cccs1)C(=O)N1CCC(c2cc3cc(-c4cccc(C(=O)O)c4)ccc3[nH]2)CC1 [Compound 21],540
17,CC[C@H](N)C(=O)NCCCc1cc2cc(-c3cccc(C(N)=O)c3)ccc2[nH]1 [Compound 103],390
18,CC[C@H](N)C(=O)NCCCc1cc2cc(C(=O)N3CCc4ccccc4C3)ccc2o1 [Compound 84],1000
19,N[C@@H](Cc1cccs1)C(=O)N1CCC(c2cc3cc(-c4ccc5c(c4)OCO5)ccc3[nH]2)CC1 [Compound 6],260
20,CC[C@H](N)C(=O)NCCCc1cc2cc(C(=O)Nc3ccc(C(C)C)cc3)ccc2[nH]1 [Compound 80],680
21,N#Cc1cccc(-c2ccc3[nH]c(C4CCN(C(=O)[C@@H](N)Cc5cccs5)CC4)cc3c2)c1 [Compound 20],200

row,SMILES,IC50 [nM]
1,CC[C@H](N)C(=O)NCCCc1cc2cc(C(=O)Nc3ccc4c(c3)S(=O)(=O)C=C4)ccc2o1 [Compound 86],1000
2,CC[C@H](N)C(=O)NCCCc1cc2cc(C(=O)Nc3ccc(OC)cc3)ccc2[nH]1 [Compound 77],350
3,CC[C@H](N)C(=O)NCCCc1cc2cc(C(=O)Nc3ccc(C)c(C)c3)ccc2[nH]1 [Compound 83],560
4,"CC[C@H](N)C(=O)NCCCc1cc2ccccc2n1C [Compound 41, (S)-2-amino-N-(3-(1-methyl-1H-indol-2-yl)propyl)butanamide]",6300
5,CC[C@H](N)C(=O)NCCCc1cc2cc(C(=O)Nc3cccc4cccnc34)ccc2o1 [Compound 66],910
6,NC(=O)c1cccc(-c2ccc3[nH]c(C4CCN(C(=O)[C@@H](N)Cc5nccs5)CC4)cc3c2)c1 [Compound 8],460
7,CC[C@H](N)C(=O)NCCCc1cc2cc(C(=O)Nc3nc[nH]n3)ccc2[nH]1 [Compound 48],6300
8,COc1ccc(-c2ccc3[nH]c(C4CCN(C(=O)[C@@H](N)Cc5nc(C)cs5)CC4)cc3c2)cc1OC [Compound 22],18000
9,"CC[C@H](NC(=O)OC(C)(C)C)C(=O)NCCCc1cc2cc(C(=O)O)ccc2[nH]1 [Compound 47, (S)-2-(3-(2-(tert-butoxycarbonylamino)butanamido)propyl)-1H-indole-5-carboxylic acid]",53000
10,COc1ccc(NC(=O)c2ccc3[nH]c(CCCNC(=O)[C@@H](N)Cc4cccs4)cc3c2)cc1OC [Compound 97],24
11,CC[C@H](N)C(=O)NCCCc1cc2cc(C(=O)Nc3ccc4ncccc4c3)ccc2o1 [Compound 67],200
12,CC[C@H](N)C(=O)NCCCc1cc2cc(C(=O)Nc3ccccc3C(C)C)ccc2[nH]1 [Compound 89],1200
13,CC[C@H](N)C(=O)NCCCc1cc2cc(C(=O)Nc3ncnc4[nH]ncc34)ccc2[nH]1 [Compound 63],2500
14,CC[C@H](N)C(=O)NCCCc1cc2cc(C(=O)Nc3c(C)cccc3C)ccc2o1 [Compound 95],430
15,CC[C@H](N)C(=O)NCCCc1cc2cc(C(=O)Nc3ccc(F)c(F)c3)ccc2[nH]1 [Compound 81],790
16,CC[C@H](N)C(=O)NCCCc1cc2cc(C(=O)Nc3cccc4ccncc34)ccc2o1 [Compound 68],710
17,"CC[C@H](N)C(=O)NCCCc1cc2ccccc2[nH]1 [Compound 40, (S)—N-(3-(1H-indol-2-yl)propyl)-2-aminobutanamide]",2900
18,CC[C@H](N)C(=O)NCCCc1cc2cc(-c3ccc(C(F)(F)F)cc3)ccc2[nH]1 [Compound 102],710
19,CC[C@H](N)C(=O)NCCCc1cc2cc(C(=O)Nc3cccnc3)ccc2o1 [Compound 52],4000
20,CC[C@H](N)C(=O)NCCc1cc2cc(C(=O)Nc3ccc(OC)c(OC)c3)ccc2[nH]1 [Compound 36],> 10000

# From US8552032B2, “Bicyclic derivatives useful as inhibitors of DPP-1” (Janssen Pharmaceutica NV, priority 2009, dated 2013)
